# Assay results published in US20250333406A1, “SULFONYL CYCLIC DERIVATIVES, AND COMPOSITIONS AND METHODS THEREOF” (Lysoway Therapeutics, Inc., priority 2023, published 2025).
# Tested on: TFEB
# Experiment: TFEB Nuclear Translocation Assay
# Assay type: cell-based
# Details: read-out: EC50 of TFEB activation
row,EC50,SMILES
1,≤ 1000 nM,"CC(C)S(=O)(=O)c1ccc(S(=O)(=O)n2nc(N3CCN(c4ncc(F)cc4F)CC34CC4)c3c(Cl)ccc(F)c32)s1 [Compound 31, 4-chloro-3-(7-(3,5-difluoropyridin-2-yl)-4,7-diazaspiro [2.5]octan-4-yl)-7-fluoro-1-((5-(isopropylsulfonyl)thiophen-2-yl)sulfonyl)-1H-indazole]"
2,≤ 1000 nM,"CC(C)S(=O)(=O)c1ccc(S(=O)(=O)n2nc(N3CCN(c4ncc(F)cc4F)CC34CC4)c3c(F)ccc(F)c32)s1 [Compound 32, 3-[7-(3,5-difluoro-2-pyridyl)-4,7-diazaspiro [2.5]octan-4-yl]-4,7-difluoro-1-[(5-isopropylsulfonyl-2-thienyl)sulfonyl]indazole]"
3,≤ 1000 nM,"CC(C)S(=O)(=O)c1ccc(S(=O)(=O)n2nc(N3CCN(c4ncc(Cl)cc4F)CC34CC4)c3c(F)ccc(F)c32)s1 [Compound 33, 3-[7-(5-chloro-3-fluoro-2-pyridyl)-4,7-diazaspiro [2.5]octan-4-yl]-4,7-difluoro-1-[(5-isopropylsulfonyl-2-thienyl)sulfonyl]indazole]"
4,≤ 1000 nM,"CC(C)S(=O)(=O)c1ccc(S(=O)(=O)n2nc(N3CCN(c4ncc(F)cn4)CC34CC4)c3c(F)ccc(F)c32)s1 [Compound 34, 4,7-difluoro-3-(7-(5-fluoropyrimidin-2-yl)-4,7-diazaspiro [2.5]octan-4-yl)-1-((5-(isopropylsulfonyl)thiophen-2-yl)sulfonyl)-1H-indazole]"
5,≤ 1000 nM,"CC(C)S(=O)(=O)c1ccc(S(=O)(=O)n2nc(N3CCN(c4ncc(Cl)cc4F)CC34CC4)c3c(Cl)cc(F)cc32)s1 [Compound 35, 4-chloro-3-(7-(5-chloro-3-fluoropyridin-2-yl)-4,7-diazaspiro[2.5]octan-4-yl)-6-fluoro-1-((5-(isopropylsulfonyl)thiophen-2-yl)sulfonyl)-1H-indazole]"
6,≤ 1000 nM,"CC(C)S(=O)(=O)c1ccc(S(=O)(=O)n2nc(N3CCN(c4ncc(Cl)cn4)CC34CC4)c3c(Cl)cc(F)cc32)s1 [Compound 36, 4-chloro-3-(7-(5-chloropyrimidin-2-yl)-4,7-diazaspiro [2.5]octan-4-yl)-6-fluoro-1-((5-(isopropylsulfonyl)thiophen-2-yl)sulfonyl)-1H-indazole]"
7,≤ 1000 nM,"CC(C)S(=O)(=O)c1ccc(S(=O)(=O)n2nc(N3CCN(c4ncc(F)cc4F)CC34CC4)c3c(Cl)cc(F)cc32)s1 [Compound 37, 4-chloro-3-[7-(3,5-difluoro-2-pyridyl)-4,7-diazaspiro [2.5]octan-4-yl]-6-fluoro-1-[(5-isopropylsulfonyl-2-thienyl)sulfonyl]indazole]"
8,≤ 1000 nM,"CC(C)S(=O)(=O)c1ccc(S(=O)(=O)n2nc(N3CCN(c4ncc(F)cn4)CC34CC4)c3c(Cl)cc(F)cc32)s1 [Compound 38, 4-chloro-6-fluoro-3-(7-(5-fluoropyrimidin-2-yl)-4,7-diazaspiro [2.5]octan-4-yl)-1-((5-(isopropylsulfonyl)thiophen-2-yl)sulfonyl)-1H-indazole]"
9,≤ 1000 nM,"CC(C)S(=O)(=O)c1ccc(S(=O)(=O)n2nc(N3CCN(c4ncc(Cl)s4)CC34CC4)c3c(Cl)cc(F)cc32)s1 [Compound 39, 5-chloro-2-(4-(4-chloro-6-fluoro-1-((5-(isopropylsulfonyl)thiophen-2-yl)sulfonyl)-1H-indazol-3-yl)-4,7-diazaspiro [2.5]octan-7-yl) thiazole]"
10,≤ 1000 nM,"CC(C)S(=O)(=O)c1ccc(S(=O)(=O)n2nc(N3CCN(c4ncc(F)cc4F)CC34CC4)c3c(F)cc(F)cc32)s1 [Compound 40, 3-(7-(3,5-difluoropyridin-2-yl)-4,7-diazaspiro [2.5]octan-4-yl)-4,6-difluoro-1-((5-(isopropylsulfonyl)thiophen-2-yl)sulfonyl)-1H-indazole]"
11,≤ 1000 nM,"CC(C)S(=O)(=O)c1ccc(S(=O)(=O)n2nc(N3CCN(c4ccc(F)cn4)CC34CC4)c3c(Cl)cc(F)cc32)s1 [Compound 41, 4-chloro-6-fluoro-3-[7-(5-fluoro-2-pyridyl)-4,7-diazaspiro [2.5]octan-4-yl]-1-[(5-isopropylsulfonyl-2-thienyl)sulfonyl]indazole]"
12,≤ 1000 nM,"CC(C)S(=O)(=O)c1ccc(S(=O)(=O)n2nc(N3CCN(c4ccc(F)cn4)CC34CC4)c3c(Cl)cccc32)s1 [Compound 42, 4-chloro-3-(7-(5-fluoropyridin-2-yl)-4,7-diazaspiro [2.5]octan-4-yl)-1-((5-(isopropylsulfonyl)thiophen-2-yl)sulfonyl)-1H-indazole]"
13,≤ 1000 nM,"CC(C)S(=O)(=O)c1ccc(S(=O)(=O)n2nc(N3CCN(c4ncc(Cl)cn4)CC34CC4)c3c(Cl)cccc32)s1 [Compound 43, 4-chloro-3-[7-(5-chloropyrimidin-2-yl)-4,7-diazaspiro [2.5]octan-4-yl]-1-[(5-isopropylsulfonyl-2-thienyl)sulfonyl]indazole]"
14,≤ 1000 nM,"CC(C)S(=O)(=O)c1ccc(S(=O)(=O)n2nc(N3CCN(c4ncc(F)cn4)CC34CC4)c3c(Cl)cccc32)s1 [Compound 44, 4-chloro-3-[7-(5-fluoropyrimidin-2-yl)-4,7-diazaspiro [2.5]octan-4-yl]-1-[(5-isopropylsulfonyl-2-thienyl)sulfonyl]indazole]"
15,≤ 1000 nM,"CC(C)S(=O)(=O)c1ccc(S(=O)(=O)n2nc(N3CCN(c4ncc(F)cc4F)CC34CC4)c3c(Cl)cccc32)s1 [Compound 45, 4-chloro-3-[7-(3,5-difluoro-2-pyridyl)-4,7-diazaspiro [2.5]octan-4-yl]-1-[(5-isopropylsulfonyl-2-thienyl)sulfonyl]indazole]"
16,≤ 1000 nM,"CC(C)S(=O)(=O)c1ccc(S(=O)(=O)n2nc(N3CCN(c4ncc(Cl)s4)CC34CC4)c3c(Cl)cccc32)s1 [Compound 46, 5-chloro-2-[4-[4-chloro-1-[(5-isopropylsulfonyl-2-thienyl)sulfonyl]indazol-3-yl]-4,7-diazaspiro [2.5]octan-7-yl]thiazole]"

# The remaining lines, values behind:
row,SMILES,EC50
1,"CC(C)S(=O)(=O)c1ccc(S(=O)(=O)n2nc(N3CCN(c4ncc(F)cn4)CC3(C)C)c3c(Cl)cccc32)cc1 [Compound 18, 4-chloro-3-(4-(5-fluoropyrimidin-2-yl)-2,2-dimethylpiperazin-1-yl)-1-((4-(isopropylsulfonyl)phenyl)sulfonyl)-1H-indazole]",≤ 1000 nM
2,"CC(C)S(=O)(=O)c1ccc(S(=O)(=O)n2nc(N3CCN(c4ccc(F)cn4)CC34CC4)c3c(F)cc(F)cc32)cc1 [Compound 19, 4,6-difluoro-3-[7-(5-fluoro-2-pyridyl)-4,7-diazaspiro [2.5]octan-4-yl]-1-(4-isopropylsulfonylphenyl) sulfonyl-indazole]",≤ 1000 nM
3,"CC(C)S(=O)(=O)c1ccc(S(=O)(=O)n2nc(N3CCN(c4ncc(F)cn4)CC34CC4)c3c(F)cc(F)cc32)cc1 [Compound 20, 4,6-difluoro-3-[7-(5-fluoropyrimidin-2-yl)-4,7-diazaspiro [2.5]octan-4-yl]-1-(4-isopropylsulfonylphenyl) sulfonyl-indazole]",≤ 1000 nM
4,"CC(C)(F)S(=O)(=O)c1ccc(S(=O)(=O)n2nc(N3CCN(c4ncc(F)cn4)CC34CC4)c3c(Cl)cccc32)cc1 [Compound 22, 4-chloro-1-((4-((2-fluoropropan-2-yl)sulfonyl)phenyl)sulfonyl)-3-(7-(5-fluoropyrimidin-2-yl)-4,7-diazaspiro [2.5]octan-4-yl)-1H-indazole]",≤ 1000 nM
5,"CC(C)S(=O)(=O)c1ccc(S(=O)(=O)n2nc(N3CCN(c4ccc(F)cn4)CC34CC4)c3c(Cl)cccc32)cc1 [Compound 23, 4-chloro-3-[7-(5-fluoro-2-pyridyl)-4,7-diazaspiro [2.5]octan-4-yl]-1-(4-isopropylsulfonylphenyl) sulfonyl-indazole]",≤ 1000 nM
6,"CC(C)S(=O)(=O)c1ccc(S(=O)(=O)n2nc(N3CCN(c4ncc(F)cc4F)CC34CC4)c3c(Cl)cccc32)cc1 [Compound 24, 4-chloro-3-[7-(3,5-difluoro-2-pyridyl)-4,7-diazaspiro [2.5]octan-4-yl]-1-(4-isopropylsulfonylphenyl) sulfonyl-indazole]",≤ 1000 nM
7,"CC(C)S(=O)(=O)c1ccc(S(=O)(=O)n2nc(N3CCN(c4ccc(F)cn4)CC34CC4)c3c(F)cccc32)cc1 [Compound 25, 4-fluoro-3-[7-(5-fluoro-2-pyridyl)-4,7-diazaspiro [2.5]octan-4-yl]-1-(4-isopropylsulfonylphenyl) sulfonyl-indazole]",≤ 1000 nM
8,"CC(C)S(=O)(=O)c1ccc(S(=O)(=O)n2nc(N3CCN(c4ncc(F)cc4F)CC34CC4)c3c(F)cccc32)cc1 [Compound 26, 3-[7-(3,5-difluoro-2-pyridyl)-4,7-diazaspiro [2.5]octan-4-yl]-4-fluoro-1-(4-isopropylsulfonylphenyl) sulfonyl-indazole]",≤ 1000 nM
9,"CC(C)S(=O)(=O)c1ccc(S(=O)(=O)n2nc(N3CCN(c4ncc(F)cc4F)CC34CC4)c3c(Cl)cc(F)cc32)cc1 [Compound 27, 4-chloro-3-[7-(3,5-difluoro-2-pyridyl)-4,7-diazaspiro [2.5]octan-4-yl]-6-fluoro-1-(4-isopropylsulfonylphenyl)sulfonyl-indazole]",≤ 1000 nM
10,"CC(C)S(=O)(=O)c1ccc(S(=O)(=O)n2nc(N3CCN(c4ncc(F)cc4F)CC34CC4)c3c(F)cc(F)cc32)cc1 [Compound 28, 3-[7-(3,5-difluoro-2-pyridyl)-4,7-diazaspiro[2.5]octan-4-yl]-4,6-difluoro-1-(4-isopropylsulfonylphenyl)sulfonyl-indazole]",≤ 1000 nM
11,"O=S(=O)(c1ccc(S(=O)(=O)n2nc(N3CCN(c4ncc(F)cn4)CC34CC4)c3c(Cl)cccc32)cc1)C1CC1 [Compound 29, 4-chloro-1-((4-(cyclopropylsulfonyl)phenyl)sulfonyl)-3-(7-(5-fluoropyrimidin-2-yl)-4,7-diazaspiro [2.5]octan-4-yl)-1H-indazole]",≤ 1000 nM
12,"CC(C)S(=O)(=O)c1ccc(S(=O)(=O)n2nc(N3CCN(c4ncc(Cl)cc4F)CC34CC4)c3c(Cl)cccc32)s1 [Compound 30, 4-chloro-3-[7-(5-chloro-3-fluoro-2-pyridyl)-4,7-diazaspiro [2.5]octan-4-yl]-1-[(5-isopropylsulfonyl-2-thienyl)sulfonyl]indazole]",≤ 1000 nM
